# Reference: US20220251105A1, “METHODS OF TREATING A MK2-MEDIATED DISORDER” (Celgene CAR LLC, priority 2019, published 2022)
# Read-outs that look alike come from different tables or passages of the source.
# Columns and labels:
# [1] = system: Mannan PsA in C57B1/6 mice; experiment: mannan-induced psoriatic arthritis model; assay type: in vivo, mouse
# [2] = steady-state plasma exposure in mouse disease models; assay type: in vivo; conditions: 3 mg/kg
# [3] = system: bone resorption activity; experiment: bone resorption activity in vitro; assay type: cell-based
# [4] = system: osteoclast differentiation; experiment: osteoclast differentiation in vitro; assay type: cell-based
# [5] = single intravenous dose pharmacokinetics in CD-1 mice; assay type: in vivo, mouse; conditions: for Vd: read-out: Vdss
# Method: In vitro and in vivo studies were conducted to characterize the absorption, PK, distribution, and metabolism of Compound 1. […] Additionally, plasma samples from single dose PK studies in mice and monkeys were evaluated for circulating metabolites.
# [6] = system: Mouse/CD-1; experiment: exploratory single dose and 14-day repeat-dose toxicity study in mice; assay type: in vivo
# Method: A single oral dose study with a 14-day repeat-dose phase was conducted in male and female mice. 250 mg/kg was selected as the highest dose for the repeat dose portion of the study.
# [7] = system: Monkey/Cynomolgus; experiment: 7-day repeat dose toxicity study in cynomolgus monkeys; assay type: in vivo; conditions: monkeys, 25, 75, 250 mg/kg/day
# Method: In cynomolgus monkeys, a 7-day repeat dose toxicity study was conducted with doses up to 250 mg/kg/day. […] To aid in dose selection for a subsequent pivotal study, an additional study was conducted to determine the maximum feasible dose under optimal feeding conditions in cynomolgus monkeys. […] Dosing monkeys in the fasted state prior to dosing yielded more consistently higher exposures. Therefore, a dose of 375 mg/kg in 0.5% methyl cellulose (400 cps) and 0.1% Tween 80 administered to fasted monkeys was selected for the 14-day repeat-dose phase of the study, and was considered the maximum feasible dose.
# [8] = toxicokinetics, 28-day monkey study; assay type: in vivo, cynomolgus monkey; conditions: for Cmax / AUC: po; for dose proportionality of systemic exposure (AUCLST): monkeys
# [9] = system: proinflammatory cytokines (TNF-α) in LPS-stimulated whole blood; experiment: Phase 1 study, whole-blood ex vivo assay with LPS stimulation; assay type: cell-based, human
# [10] = system: TNF-α secretion by PBMCs; experiment: ex vivo studies of PBMCs from healthy volunteers; assay type: cell-based, human; conditions: at TE of 60%
# [11] = CD-1, plasma, mouse, female, single IV 5 mg/kg
# [12] = CD-1, plasma, mouse, male, single IV 5 mg/kg
structure (smiles),measurement,setting,value
CCOCc1cnc(Cl)nc1Oc1ccc2c(ccc3sc4c(c32)NC[C@@H](C)NC4=O)n1 [Compound 1],% Inhibition by PsASI,"[1]; 3 mg/kg, from PsASI-score time curve",36% by
same,Minimally Efficacious Dose,"[1]; endpoint PsASI score (ear thickness, skin flakiness, paw score combined)",3 mg/kg
same,AUC,"[2]; BALB/c, mouse, CAIA in BALB/c mice",626 ng·h/mL
same,AUC,"[2]; BALB/c, mouse, imiquimod ear swelling in BALB/c mice",917 ng·h/mL
same,AUC,"[2]; C57B1/6, mouse, mannan PsA in C57B1/6 mice",467 ng·h/mL
same,bone resorption activity,[3],reduce bone resorption activity in vitro
same,osteoclast differentiation,[4],inhibit osteoclast differentiation in vitro
same,AUC,[5]; [11],3400 ng·h/mL
same,AUC(0-inf),[5]; [11],3430 ng·h/mL
same,clearance,[5]; [11],24.3 mL/min/kg
same,Vd,[5]; [11],2.49 L/kg
same,half-life,"[5]; CD-1, plasma, mouse, female, single IV 5 mg/kg, read-out: t1/2,z (converted)",396 min
same,AUC,[5]; [12],4160 ng·h/mL
same,AUC(0-inf),[5]; [12],4350 ng·h/mL
same,clearance,[5]; [12],19.2 mL/min/kg
same,Vd,[5]; [12],5.08 L/kg
same,half-life,"[5]; CD-1, plasma, mouse, male, single IV 5 mg/kg, read-out: t1/2,z (converted)",438 min
same,half-life,"[5]; both sexes, CD-1, mouse, plasma, iv, 5 mg/kg, mice, read-out: terminal half-life (converted)",~420 min
same,systemic clearance as % of liver blood flow,"[5]; mice, IV",approximately 25 % of liver blood flow
same,"Findings, 14-day phase","[6]; mice, 15, 75, 250 mg/kg/day",no compound related findings were identified
same,"Findings, single dose phase","[6]; mice, at 750 mg/kg",Cold to touch and shaking
same,"Findings, 7 days",[7],no compound-related findings in any endpoints
same,AUC(0-t),"[8]; cynomolgus monkey, plasma, oral, female monkeys, read-out: AUC0-24, steady state exposure at the NOAEL",~7840 ng·h/mL
same,Cmax,"[8]; cynomolgus monkey, plasma, monkey, Study Day 1, male, 375 mg/kg/day",1960 ng/mL
same,Cmax,"[8]; cynomolgus, cynomolgus monkey, plasma, monkey, Study Day 21, female, 375 mg/kg/day",810 ng/mL
same,Cmax,"[8]; cynomolgus, cynomolgus monkey, plasma, monkey, Study Day 21, male, 375 mg/kg/day",2340 ng/mL
same,Cmax,"[8]; female, cynomolgus monkey, plasma, 15 mg/kg/day, monkey, Study Day 1, female, 15 mg/kg/day (so in the source)",862 ng/mL
same,AUC,"[8]; female, cynomolgus monkey, plasma, 15 mg/kg/day, monkey, Study Day 1, female, 15 mg/kg/day (so in the source), read-out: AUCLST",3090 ng·h/mL
same,Cmax,"[8]; female, cynomolgus monkey, plasma, 150 mg/kg/day, monkey, Study Day 1, female, 150 mg/kg/day",1390 ng/mL
same,AUC,"[8]; female, cynomolgus monkey, plasma, 150 mg/kg/day, monkey, Study Day 1, female, 150 mg/kg/day, read-out: AUCLST",6330 ng·h/mL
same,AUC,"[8]; female, cynomolgus monkey, plasma, 150 mg/kg/day, monkey, Study Day 21, female, 150 mg/kg/day, read-out: AUCLST",7840 ng·h/mL
same,AUC,"[8]; female, cynomolgus monkey, plasma, 375 mg/kg/day, monkey, Study Day 1, female, 375 mg/kg/day, read-out: AUCLST",16700 ng·h/mL
same,AUC,"[8]; female, cynomolgus monkey, plasma, 375 mg/kg/day, monkey, Study Day 21, female, 375 mg/kg/day, read-out: AUCLST",4220 ng·h/mL
same,Cmax,"[8]; female, cynomolgus, cynomolgus monkey, plasma, 15 mg/kg/day, monkey, Study Day 21, female, 15 mg/kg/day (so in the source)",818 ng/mL
same,AUC,"[8]; female, cynomolgus, cynomolgus monkey, plasma, 15 mg/kg/day, monkey, Study Day 21, female, 15 mg/kg/day (so in the source), read-out: AUCLST",2460 ng·h/mL
same,Cmax,"[8]; female, cynomolgus, cynomolgus monkey, plasma, 150 mg/kg/day, monkey, Study Day 21, female, 150 mg/kg/day",1620 ng/mL
same,Cmax,"[8]; male, cynomolgus monkey, plasma, 15 mg/kg/day, monkey, Study Day 1, male, 15 mg/kg/day (so in the source)",623 ng/mL
same,AUC,"[8]; male, cynomolgus monkey, plasma, 15 mg/kg/day, monkey, Study Day 1, male, 15 mg/kg/day (so in the source), read-out: AUCLST",1750 ng·h/mL
same,Cmax,"[8]; male, cynomolgus monkey, plasma, 15 mg/kg/day, monkey, Study Day 21, male, 15 mg/kg/day (so in the source)",465 ng/mL
same,Cmax,"[8]; male, cynomolgus monkey, plasma, 150 mg/kg/day, monkey, Study Day 1, male, 150 mg/kg/day",1240 ng/mL
same,AUC,"[8]; male, cynomolgus monkey, plasma, 150 mg/kg/day, monkey, Study Day 1, male, 150 mg/kg/day, read-out: AUCLST",5840 ng·h/mL
same,Cmax,"[8]; male, cynomolgus monkey, plasma, 150 mg/kg/day, monkey, Study Day 21, male, 150 mg/kg/day",674 ng/mL
same,AUC,"[8]; male, cynomolgus monkey, plasma, 375 mg/kg/day, male monkeys (375 mg/kg/day), steady-state, read-out: NOAEL with respect to AUCLST",8790 ng·h/mL
same,AUC,"[8]; male, cynomolgus monkey, plasma, 375 mg/kg/day, monkey, Study Day 1, male, 375 mg/kg/day, read-out: AUCLST",14100 ng·h/mL
same,AUC,"[8]; male, cynomolgus, cynomolgus monkey, plasma, 15 mg/kg/day, monkey, Study Day 21, male, 15 mg/kg/day (so in the source), read-out: AUCLST",1280 ng·h/mL
same,AUC,"[8]; male, cynomolgus, cynomolgus monkey, plasma, 150 mg/kg/day, monkey, Study Day 21, male, 150 mg/kg/day, read-out: AUCLST",3950 ng·h/mL
same,AUC,"[8]; male, cynomolgus, cynomolgus monkey, plasma, 375 mg/kg/day, monkey, Study Day 21, male, 375 mg/kg/day, read-out: AUCLST",8790 ng·h/mL
same,dose proportionality of systemic exposure (AUCLST),"[8]; Day 1, 50 to 375 mg/kg/day",approximately dose-proportional manner
same,dose proportionality of systemic exposure (AUCLST),"[8]; Day 20, 50 to 375 mg/kg/day",less than dose-proportional manner
same,TNF inhibition in the ex vivo assay,"[9]; Part 1, single oral doses 10 mg to 400 mg, by 4 hours, LPS 24 hours",dose dependent increase
same,TNF-α in the ex vivo assay,"[9]; Part 2, 14 days of dosing, doses greater than 10 mg, maximal inhibition at 150 mg",sustained reductions in TNF-α
same,inhibition of TNF-α secretion,[10],approximately 70%
